From patent publication US6410558B1, “Fungicides for the control of take-all disease of plants” (Monsanto Technology LLC, priority 1991, dated 2002)

Test system: Gaeumannomyces graminis var. tritici (Ggt)
Test: In vitro Assay: mycelial growth of Ggt on minimal media agar plates containing test compound
Assay type: cell-based
Settings: 0.1 ppm in minimal media agar; dark, 19-20° C., 4 to 5 days; diameter of mycelial growth
Outline: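 Compounds added from acetone stock into minimal (Czapek Dox) agar; plates inoculated with three 4-mm Ggt plugs, incubated in dark at 19-20° C for 4 to 5 days. Colony diameter measured; Percent Inhibition = [1-((treated mm −4)/(control mm −4))]×100.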

Structure (SMILES) | In vitro (ppm) 0.1, Percent Inhibition [%]
CCN(CC)C(=O)c1c(Cl)cccc1N(C)C(C)(C)C [Example 281, 2-Chloro-6-[(1,1-dimethylethyl)methylamino]-N,N-(diethyl)benzamide] | 4

Same assay, conditions: 1 ppm in minimal media agar; dark, 19-20° C., 4 to 5 days; diameter of mycelial growth

Structure (SMILES) | In vitro (ppm) 1, Percent Inhibition
CCN(CC)C(=O)c1c(Cl)cccc1N(C)C(C)(C)C [Example 281, 2-Chloro-6-[(1,1-dimethylethyl)methylamino]-N,N-(diethyl)benzamide] | N (If the calculation resulted in “0” or less, as compared to the untreated control, a “N” is shown to indicate no control.)

Same assay, conditions: 10 ppm in minimal media agar; dark, 19-20° C., 4 to 5 days; diameter of mycelial growth

Structure (SMILES) | In vitro (ppm) 10, Percent Inhibition [%]
CCN(CC)C(=O)c1c(Cl)cccc1N(C)C(C)(C)C [Example 281, 2-Chloro-6-[(1,1-dimethylethyl)methylamino]-N,N-(diethyl)benzamide] | 43

Same assay, conditions: Gaeumannomyces graminis; 0.1 ppm in minimal media agar; dark, 19-20° C., 4 to 5 days; diameter of mycelial growth; read-out: In vitro (ppm) 0.1, Percent Inhibition

Structure (SMILES) | inhibition at 0.1 ppm [%]
CCNC(=O)c1sc([S+](C)[O-])cc1[Si](C)(C)C (stereo not drawn) [Example 260, N-Ethyl-5-(methylsulfinyl)-3-(trimethylsilyl)-2-thiophenecarboxamide] | < 0
CCNC(=O)c1sc(SC)cc1[Si](C)(C)C [Example 261, N-Ethyl-5-(methylthio)-3-(trimethylsilyl)-2-thiophenecarboxamide] | 14
C=CCNC(=O)c1sc(Cl)cc1[Si](C)(C)C [Example 262, 5-Chloro-N-(2-propenyl)-3-(trimethylsilyl)-2-thiophenecarboxamide] | 13
C[Si](C)(C)c1cc(Cl)sc1C(=O)NCCO [Example 263, 5-Chloro-N-(2-hydroxyethyl)-3-trimethylsilyl-2-thiophenecarboxamide] | 7
C[Si](C)(C)c1cc(Cl)sc1C(=O)NCCCl [Example 264, 5-Chloro-N-(2-chloroethyl)-3-(trimethylsilyl)-2-thiophenecarboxamide] | 2
C[Si](C)(C)c1cc(Cl)sc1C(=O)NCCOS(C)(=O)=O [Example 265, 5-Chloro-N-[2[(methylsulfonyl)oxy]ethyl]-3-(trimethylsilyl)-2-thiophenecarboxamide] | 5
CCNC(=O)c1c(Br)csc1[Si](C)(C)C [Example 267, 4-Bromo-N-ethyl-2-(trimethylsilyl)-3-thiophenecarboxamide] | 18
CCNC(=O)c1cc(Br)sc1[Si](C)(C)C [Example 268, 5-Bromo-N-ethyl-2-(trimethylsilyl)-3-thiophenecarboxamide] | < 0
C=CCN(SC)C(=O)c1sc(Cl)cc1[Si](C)(C)C [Example 273, 5-Chloro-N-(methylthio)-N-2-propenyl-3-(trimethylsilyl)-2-thiophenecarboxamide] | 35
CCNC(=O)c1sc2c(c1[Si](C)(C)C)CCCC2 [Example 274, N-Ethyl-3-(trimethylsilyl)-4,5,6,7-tetrahydrobenzo[B]thiophene-2-carboxamide] | < 0
CCNC(=O)c1cc(NC)ccc1[Si](C)(C)C [Example 275, N-Ethyl-5-(methylamino)-2-(trimethylsilyl)benzamide] | 22
CCNC(=O)c1c([Si](C)(C)C)ccc(C#C[Si](C)(C)C)c1Cl [Example 276, 2-Chloro-N-ethyl-6-(trimethylsilyl)-3-[(trimethylsilyl)ethynyl]benzamide] | < 0
C=Cc1ccc([Si](C)(C)C)c(C(=O)NCC)c1Cl [Example 277, 2-Chloro-3-ethenyl-N-ethyl-6-(trimethylsilyl)benzamide] | 69
CCOP(=O)(OCC)N(CC)C(=O)c1c(Cl)cccc1[Si](C)(C)C [Example 278, [2-Chloro-6-(trimethylsilyl)benzoyl]ethylphosphoramidic acid, diethyl ester] | < 0
CCN(CSC)C(=O)c1c(Cl)cccc1[Si](C)(C)C [Example 279, 2-Chloro-N-ethyl-N-[(methylthio)methyl]-6-(trimethylsilyl)benzamide] | < 0
CCNC(=O)c1c(F)cccc1S(=O)(=O)C(C)(C)C [Example 280, 2-[(1,1-Dimethylethyl)sulfonyl]-N-ethyl-6-fluorobenzamide] | 24
CCNC(=O)c1nc(Cl)sc1[Si](C)(C)C [Example 282, 2-Chloro-N-ethyl-5-(trimethylsilyl)-4-thiazolecarboxamide] | 3
CCNC(=O)C1=CSC(Cl)N1[Si](C)(C)C (stereo not drawn) [Example 283, 2-Chloro-N-ethyl-3-(trimethylsilyl)-4-thiazolecarboxamide] | < 0
CCNC(=O)n1nccc1[Si](C)(C)C [Example 284, N-Ethyl-5-(trimethylsilyl)-1H-pyrazole-1-carboxamide] | 23
CCNC(=O)c1c(Cl)cccc1C(C)(C)C [Example 285, 2-Chloro-N-ethyl-6-(1,1-dimethylethyl)benzamide] | < 0
CCNC(=O)c1sc(C)c(C)c1[Si](C)(C)C [Example 286, 4,5-Dimethyl-N-ethyl-3-(trimethylsilyl)-2-thiophenecarboxamide] | 76
CC(C)N(O)C(=O)c1sc(Cl)cc1[Si](C)(C)C [Example 287, 5-Chloro-N-hydroxy-N-(1-methylethyl)-3-(trimethylsilyl)-2-thiophenecarboxamide] | 64

Same assay, conditions: Gaeumannomyces graminis; 1 ppm in minimal media agar; dark, 19-20° C., 4 to 5 days; diameter of mycelial growth; read-out: In vitro (ppm) 1, Percent Inhibition

Structure (SMILES) | inhibition at 1 ppm [%]
CCNC(=O)c1sc([S+](C)[O-])cc1[Si](C)(C)C (stereo not drawn) [Example 260, N-Ethyl-5-(methylsulfinyl)-3-(trimethylsilyl)-2-thiophenecarboxamide] | < 0
CCNC(=O)c1sc(SC)cc1[Si](C)(C)C [Example 261, N-Ethyl-5-(methylthio)-3-(trimethylsilyl)-2-thiophenecarboxamide] | 25
C=CCNC(=O)c1sc(Cl)cc1[Si](C)(C)C [Example 262, 5-Chloro-N-(2-propenyl)-3-(trimethylsilyl)-2-thiophenecarboxamide] | 70
C[Si](C)(C)c1cc(Cl)sc1C(=O)NCCO [Example 263, 5-Chloro-N-(2-hydroxyethyl)-3-trimethylsilyl-2-thiophenecarboxamide] | < 0
C[Si](C)(C)c1cc(Cl)sc1C(=O)NCCCl [Example 264, 5-Chloro-N-(2-chloroethyl)-3-(trimethylsilyl)-2-thiophenecarboxamide] | 88
C[Si](C)(C)c1cc(Cl)sc1C(=O)NCCOS(C)(=O)=O [Example 265, 5-Chloro-N-[2[(methylsulfonyl)oxy]ethyl]-3-(trimethylsilyl)-2-thiophenecarboxamide] | 14
CCNC(=O)c1c(Br)csc1[Si](C)(C)C [Example 267, 4-Bromo-N-ethyl-2-(trimethylsilyl)-3-thiophenecarboxamide] | 64
CCNC(=O)c1cc(Br)sc1[Si](C)(C)C [Example 268, 5-Bromo-N-ethyl-2-(trimethylsilyl)-3-thiophenecarboxamide] | < 0
C=CCN(SC)C(=O)c1sc(Cl)cc1[Si](C)(C)C [Example 273, 5-Chloro-N-(methylthio)-N-2-propenyl-3-(trimethylsilyl)-2-thiophenecarboxamide] | 48
CCNC(=O)c1sc2c(c1[Si](C)(C)C)CCCC2 [Example 274, N-Ethyl-3-(trimethylsilyl)-4,5,6,7-tetrahydrobenzo[B]thiophene-2-carboxamide] | 10
CCNC(=O)c1cc(NC)ccc1[Si](C)(C)C [Example 275, N-Ethyl-5-(methylamino)-2-(trimethylsilyl)benzamide] | 81
CCNC(=O)c1c([Si](C)(C)C)ccc(C#C[Si](C)(C)C)c1Cl [Example 276, 2-Chloro-N-ethyl-6-(trimethylsilyl)-3-[(trimethylsilyl)ethynyl]benzamide] | 63
C=Cc1ccc([Si](C)(C)C)c(C(=O)NCC)c1Cl [Example 277, 2-Chloro-3-ethenyl-N-ethyl-6-(trimethylsilyl)benzamide] | 81
CCOP(=O)(OCC)N(CC)C(=O)c1c(Cl)cccc1[Si](C)(C)C [Example 278, [2-Chloro-6-(trimethylsilyl)benzoyl]ethylphosphoramidic acid, diethyl ester] | 50
CCN(CSC)C(=O)c1c(Cl)cccc1[Si](C)(C)C [Example 279, 2-Chloro-N-ethyl-N-[(methylthio)methyl]-6-(trimethylsilyl)benzamide] | < 0
CCNC(=O)c1c(F)cccc1S(=O)(=O)C(C)(C)C [Example 280, 2-[(1,1-Dimethylethyl)sulfonyl]-N-ethyl-6-fluorobenzamide] | 21
CCNC(=O)c1nc(Cl)sc1[Si](C)(C)C [Example 282, 2-Chloro-N-ethyl-5-(trimethylsilyl)-4-thiazolecarboxamide] | 15
CCNC(=O)C1=CSC(Cl)N1[Si](C)(C)C (stereo not drawn) [Example 283, 2-Chloro-N-ethyl-3-(trimethylsilyl)-4-thiazolecarboxamide] | 3
CCNC(=O)n1nccc1[Si](C)(C)C [Example 284, N-Ethyl-5-(trimethylsilyl)-1H-pyrazole-1-carboxamide] | 35
CCNC(=O)c1c(Cl)cccc1C(C)(C)C [Example 285, 2-Chloro-N-ethyl-6-(1,1-dimethylethyl)benzamide] | 50
CCNC(=O)c1sc(C)c(C)c1[Si](C)(C)C [Example 286, 4,5-Dimethyl-N-ethyl-3-(trimethylsilyl)-2-thiophenecarboxamide] | 93
CC(C)N(O)C(=O)c1sc(Cl)cc1[Si](C)(C)C [Example 287, 5-Chloro-N-hydroxy-N-(1-methylethyl)-3-(trimethylsilyl)-2-thiophenecarboxamide] | 71

Same assay, conditions: Gaeumannomyces graminis; 10 ppm in minimal media agar; dark, 19-20° C., 4 to 5 days; diameter of mycelial growth; read-out: In vitro (ppm) 10, Percent Inhibition

Structure (SMILES) | inhibition at 10 ppm [%]
CCNC(=O)c1sc([S+](C)[O-])cc1[Si](C)(C)C (stereo not drawn) [Example 260, N-Ethyl-5-(methylsulfinyl)-3-(trimethylsilyl)-2-thiophenecarboxamide] | 77
CCNC(=O)c1sc(SC)cc1[Si](C)(C)C [Example 261, N-Ethyl-5-(methylthio)-3-(trimethylsilyl)-2-thiophenecarboxamide] | 78
C=CCNC(=O)c1sc(Cl)cc1[Si](C)(C)C [Example 262, 5-Chloro-N-(2-propenyl)-3-(trimethylsilyl)-2-thiophenecarboxamide] | 100
C[Si](C)(C)c1cc(Cl)sc1C(=O)NCCO [Example 263, 5-Chloro-N-(2-hydroxyethyl)-3-trimethylsilyl-2-thiophenecarboxamide] | 50
C[Si](C)(C)c1cc(Cl)sc1C(=O)NCCCl [Example 264, 5-Chloro-N-(2-chloroethyl)-3-(trimethylsilyl)-2-thiophenecarboxamide] | 100
C[Si](C)(C)c1cc(Cl)sc1C(=O)NCCOS(C)(=O)=O [Example 265, 5-Chloro-N-[2[(methylsulfonyl)oxy]ethyl]-3-(trimethylsilyl)-2-thiophenecarboxamide] | 100
CCNC(=O)c1c(Br)csc1[Si](C)(C)C [Example 267, 4-Bromo-N-ethyl-2-(trimethylsilyl)-3-thiophenecarboxamide] | 61
CCNC(=O)c1cc(Br)sc1[Si](C)(C)C [Example 268, 5-Bromo-N-ethyl-2-(trimethylsilyl)-3-thiophenecarboxamide] | 100
C=CCN(SC)C(=O)c1sc(Cl)cc1[Si](C)(C)C [Example 273, 5-Chloro-N-(methylthio)-N-2-propenyl-3-(trimethylsilyl)-2-thiophenecarboxamide] | 100
CCNC(=O)c1sc2c(c1[Si](C)(C)C)CCCC2 [Example 274, N-Ethyl-3-(trimethylsilyl)-4,5,6,7-tetrahydrobenzo[B]thiophene-2-carboxamide] | 67
CCNC(=O)c1cc(NC)ccc1[Si](C)(C)C [Example 275, N-Ethyl-5-(methylamino)-2-(trimethylsilyl)benzamide] | 94
CCNC(=O)c1c([Si](C)(C)C)ccc(C#C[Si](C)(C)C)c1Cl [Example 276, 2-Chloro-N-ethyl-6-(trimethylsilyl)-3-[(trimethylsilyl)ethynyl]benzamide] | 84
C=Cc1ccc([Si](C)(C)C)c(C(=O)NCC)c1Cl [Example 277, 2-Chloro-3-ethenyl-N-ethyl-6-(trimethylsilyl)benzamide] | 94
CCOP(=O)(OCC)N(CC)C(=O)c1c(Cl)cccc1[Si](C)(C)C [Example 278, [2-Chloro-6-(trimethylsilyl)benzoyl]ethylphosphoramidic acid, diethyl ester] | 75
CCN(CSC)C(=O)c1c(Cl)cccc1[Si](C)(C)C [Example 279, 2-Chloro-N-ethyl-N-[(methylthio)methyl]-6-(trimethylsilyl)benzamide] | 47
CCNC(=O)c1c(F)cccc1S(=O)(=O)C(C)(C)C [Example 280, 2-[(1,1-Dimethylethyl)sulfonyl]-N-ethyl-6-fluorobenzamide] | 38
CCNC(=O)c1nc(Cl)sc1[Si](C)(C)C [Example 282, 2-Chloro-N-ethyl-5-(trimethylsilyl)-4-thiazolecarboxamide] | 78
CCNC(=O)C1=CSC(Cl)N1[Si](C)(C)C (stereo not drawn) [Example 283, 2-Chloro-N-ethyl-3-(trimethylsilyl)-4-thiazolecarboxamide] | 42
CCNC(=O)n1nccc1[Si](C)(C)C [Example 284, N-Ethyl-5-(trimethylsilyl)-1H-pyrazole-1-carboxamide] | 91
CCNC(=O)c1c(Cl)cccc1C(C)(C)C [Example 285, 2-Chloro-N-ethyl-6-(1,1-dimethylethyl)benzamide] | 75
CCNC(=O)c1sc(C)c(C)c1[Si](C)(C)C [Example 286, 4,5-Dimethyl-N-ethyl-3-(trimethylsilyl)-2-thiophenecarboxamide] | 100
CC(C)N(O)C(=O)c1sc(Cl)cc1[Si](C)(C)C [Example 287, 5-Chloro-N-hydroxy-N-(1-methylethyl)-3-(trimethylsilyl)-2-thiophenecarboxamide] | 78
